Experimental data from US12486259B2, “FXR agonist having pyrazine structure, and preparation method and use” (JIANGSU TASLY DIYI PHARMACEUTICAL CO., LTD., priority 2020, dated 2025).

Key:
[1] = target: T1, GST-labeled recombinant human FXR protein (Homo sapiens, UniProt Q96RI1); test: Agonistic activity on FXR receptor (GST-FXR / SRC-1 bead assay, protein level); type: biochemical; conditions: 0.4 nM FXR, 30 nM SRC-1, protein level
T1 construct: purchased Invitroren (so in the source)
T1 sequence (Q96RI1 262-486 limits assumed): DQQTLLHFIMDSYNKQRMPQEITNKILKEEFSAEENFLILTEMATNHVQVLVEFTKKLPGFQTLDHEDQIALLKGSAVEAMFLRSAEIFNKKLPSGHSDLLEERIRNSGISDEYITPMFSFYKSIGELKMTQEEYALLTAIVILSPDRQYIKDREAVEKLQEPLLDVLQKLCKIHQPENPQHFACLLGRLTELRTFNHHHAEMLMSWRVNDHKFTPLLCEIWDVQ
T1 sequence (Q15788 676-700 partner limits assumed): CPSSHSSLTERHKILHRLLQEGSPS
Protocol: Experimental procedures: FXR (GST-labeled recombinant human FXR protein, manufacturer: Invitroren, Item number: PV4835) and SRC-1 (steroid receptor co-activator-1) are thawed on ice. Three solutions of ABC are prepared by a buffer solution, solution A, 0.4 n M FXR and 30 nM SRC-1; solution B, 10 ug/ml Acceptor Beads; solution C, 10 ug/ml Donor Beads. Solution A is added to the plate at 15 uL per well. It is incubated at room temperature for 1 hour. Solution B is added to the plate at 7.5 uL per well. It is incubated at room temperature for 1 hour. Solution C is added to the plate at 7.5 uL per well. It is incubated at room temperature for 1 hour. It is read from the microplate reader Envision. The data are curve fitted by using Prism 5.0 to calculate the EC50.

[2] = system: C57/BL6 mice fed MCD diet; test: Pharmacodynamic test in methionine-choline deficient diet (MCD) model of non-alcoholic fatty liver disease; type: in vivo; conditions: for Weight, 0 week / Food intake, 1 week / Weight, 1 week / Food intake, 2 weeks / Weight, 2 weeks / Food intake, 3 weeks / Weight, 3 weeks / Food intake, 4 weeks / Weight, 4 week / liver weight / liver/body weight / ALT, 3 weeks / AST, 3 weeks / ALT, 4 weeks / AST, 4 weeks / HDL (blood lipid) / LDL (blood lipid) / TC (blood lipid) / TG (blood lipid) / HE score / Sirius red staining area / liver TC / liver TG: MCD mice, obeticholic acid 40 mpk; for Weight, 0 week / Weight, 1 week / Weight, 2 weeks / Weight, 3 weeks / Weight, 4 week: TM compounds 30 mpk, once daily by gavage; for Food intake, 1 week / Food intake, 2 weeks / Food intake, 3 weeks / Food intake, 4 weeks / liver weight / liver/body weight / ALT, 3 weeks / AST, 3 weeks / ALT, 4 weeks / AST, 4 weeks / HDL (blood lipid) / LDL (blood lipid) / TC (blood lipid) / TG (blood lipid) / HE score / Sirius red staining area / liver TC / liver TG: TM 30 mpk; for Food intake, 1 week / Food intake, 2 weeks / Food intake, 3 weeks / Food intake, 4 weeks / ALT, 3 weeks / AST, 3 weeks / ALT, 4 weeks / AST, 4 weeks: gavage; for Food intake, 4 weeks / Weight, 4 week / ALT, 4 weeks / AST, 4 weeks / HE score / Sirius red staining area: 4 weeks; for liver weight / liver/body weight / HDL (blood lipid) / LDL (blood lipid) / TC (blood lipid) / TG (blood lipid) / liver TC / liver TG: after 4 weeks; for ALT, 3 weeks / AST, 3 weeks / ALT, 4 weeks / AST, 4 weeks / HDL (blood lipid) / LDL (blood lipid) / TC (blood lipid) / TG (blood lipid): blood; for HE score: liver pathology score (Table 12 criteria); for Sirius red staining area / liver TC / liver TG: liver; for blood lipid levels (in words) / liver triglyceride and cholesterol content (in words) / liver weight and liver/body weight (in words): after 4 weeks of MCD and compounds treatment; for ALT and AST compared to the model group (in words): three weeks after MCD and compounds treatment
Protocol: Animal strain: C57/BL6, Animal Grade: SPF Grade, Gender: male, Animal Age: 8 weeks old, Animals Received Date: 2018 Sep. 28, Animal Source: Shanghai Lingchang Biotechnology Co. Ltd., Animal Certificate No: SCXK (Shanghai)2013-0018 2013001836799, Mouse feeding Environment: temperature 20-26° C., humidity 40-70%, 12 hour day and night cycle.
5% Solutol HS15/Normal saline: after Solutol HS15 (polyethylene glycol 15 hydroxystearate solubilizer) is dissolved in a water bath at 37° C., 5 ml of it is dissolved in 100 ml of normal saline, thoroughly stirred for later use.
Obeticholic acid/5% Solutol HS15/Normal saline: 0.15 ml Solutol HS15 is added to accurately weighed 12 mg obeticholic acid to fully dissolve it, and 2.85 ml normal saline is added, vigorously mixed and dissolved by the ultrasound. • TM-01 Group/5% Solutol HS15/Normal saline: 2.5 ml of 6 mg/ml TM-01 suspension is taken, 2.5 ml of 5% Solutol HS15/normal saline is added, and the mixture is mixed well. • TM-02 Group/5% Solutol HS15/Normal saline: 2.5 ml of 6 mg/ml TM-02 suspension is taken, 2.5 ml of 5% Solutol HS15/normal saline is added, and the mixture is mixed well. • TM-06 Group/5% Solutol HS15/Normal saline: 2.5 ml of 6 mg/ml TM-06 suspension is taken, 2.5 ml of 5% Solutol HS15/Normal saline is added, and the mixture is mixed well. • TM-09 Group/5% Solutol HS15/Normal saline: 2.5 ml of 6 mg/ml TM-09 suspension is taken, 2.5 ml of 5% Solutol HS15/Normal saline is added, and the mixture is mixed well.
Menstruum and test compounds are administered by gavage at a dose volume of 10 ml/kg;
After reaching the animal house, 70 8-week-old C57/BL6 mice are fed adaptively and randomly divided into 7 groups according to body weight after the average body weight reaches 23 g. They are given the model feed. The first group receives the control diet MCS and the remaining groups receive the MCD diet, while each group of mice receives compound treatment as follows: • Group 1. Control Group: MCS, menstruum, administered once daily by gavage; • Group 2. Model Group: MCD, menstruum, administered once daily by gavage; • Group 3. Obeticholic acid group: MCD, 40 mpk obeticholic acid, administered once daily by gavage; • Group 4. TM-01 Group: MCD, 30 mpk TM-01, administered once daily by gavage; • Group 5. TM-02 Group: MCD, 30 mpk TM-02, administered once daily by gavage; • Group 6. TM-06 Group: MCD, 30 mpk TM-06, administered once daily by gavage; • Group 7. TM-09 Group: MCD, 30 mpk TM-09, administered once daily by gavage; 2.4 Experimental Methods
Body weight and food intake are measured weekly during the experiment. Twenty-one days after administration, tail tips are bled with microcapillaries for AST, ALT measurements. Twenty-eight days after administration, mice are terminated, hearts are bled, and liver tissues are collected and weighed. One portion is snap frozen with liquid nitrogen for subsequent analysis and the other portion are fixed for pathological analysis.
Mouse blood is centrifuged at 5000 rpm for 10 minutes and supernatants are collected for determination of TG (triglycerides), TC (total cholesterol), HDL (high density lipoprotein), LDL (low density lipoprotein), AST (aspartate aminotransferase) and ALT (alanine aminotransferase).
AST and ALT after administration for three and four weeks are determined according to the instructions of kit. The blood lipid index 4 weeks after administration is sent to Adicon Medical Laboratory Co. Ltd. for detection.
The livers are removed from −80° C., homogenized in PBS (phosphate buffered saline), extracted with chloroform methanol organic phase, and subjected to TC and TG assays using the kit, normalized for protein content.
Four weeks after administration, the mice are anesthetized. The heart is bled, the liver is isolated and weighed. The right lobe is snapfrozen with liquid nitrogen and stored at −80° C. for liver lipid analysis. The left lobe is isolated and fixed in 10% formalin for subsequent HE and Sirius Red staining. […]

Row | Structure (SMILES) | EC50 [1] [µM] | Weight, 0 week [2] [g] | Food intake, 1 week [2] [g] | Weight, 1 week [2] [g] | Food intake, 2 weeks [2] [g] | Weight, 2 weeks [2] [g] | Food intake, 3 weeks [2] [g] | Weight, 3 weeks [2] [g] | Food intake, 4 weeks [2] [g] | Weight, 4 week [2] [g] | liver weight [2] [g] | liver/body weight [2] [%] | ALT, 3 weeks [2] [U/L] | AST, 3 weeks [2] [U/L] | ALT, 4 weeks [2] [U/L] | AST, 4 weeks [2] [U/L] | HDL (blood lipid) [2] [mmol/L] | LDL (blood lipid) [2] [mmol/L] | TC (blood lipid) [2] [mmol/L] | TG (blood lipid) [2] [mmol/L] | further results
1 | O=C(O)c1cccc(C2CC(O)(c3cnc(OCc4c(-c5c(Cl)cccc5Cl)noc4C4CC4)cn3)C2)c1 (stereo not drawn) [TM-01, 3-(3-(5-(5-cyclopropyl-3-(2,6-dichlorophenyl)isoxazole-4-ylmethoxy)-2-pyrazine)-1-hydroxycyclobutane) benzoic acid] | 0.54 | 23.78 ± 0.47 | 3.011 ± 0.555 | 21.24 ± 0.42 | 2.746 ± 0.466 | 18.49 ± 0.41 | 1.909 ± 0.215 | 16.97 ± 0.38 | 1.697 ± 0.027 | 14.70 ± 0.20 | 0.89 ± 0.05 | 6.32 ± 0.26 | 41.58 ± 10.32 | 53.50 ± 19.62 | 14.28 ± 13.21 | 40.36 ± 26.31 | 0.59 ± 0.11 | 2.61 ± 0.26 | 0.95 ± 0.44 | 0.53 ± 0.10 | HE score [2]: 1; Sirius red staining area [2]: 0.365 ± 0.069 %; liver TC [2]: 34.9 ± 8.2 µmol/g protein; liver TG [2]: 247 ± 54.1 µmol/g protein; blood lipid levels (in words) [2]: different reductions in blood lipids; liver triglyceride and cholesterol content (in words) [2]: significant lowering effect on liver triglyceride and cholesterol levels; liver weight and liver/body weight (in words) [2]: significantly increases mouse liver weight and liver/body weight; ALT and AST compared to the model group (in words) [2]: significantly reduced
2 | O=C(O)c1cccc(N2CC(O)(c3cnc(OCc4c(-c5c(Cl)cccc5Cl)noc4C4CC4)cn3)C2)c1 [TM-02, 3-(3-(5-((5-cyclopropyl-3-(2,6-dichlorophenyl)isoxazol-4-yl)methoxy)pyrazine-2-yl)-3-hydroxyazetidin-1-yl) benzoic acid] | 2.32 | 23.71 ± 0.35 | 2.190 ± 0.504 | 21.52 ± 0.42 | 2.400 ± 0.288 | 18.81 ± 0.49 | 1.688 ± 0.266 | 16.69 ± 0.34 | 1.518 ± 0.376 | 15.48 ± 0.35 | 0.85 ± 0.05 | 5.48 ± 0.28 | 183.36 ± 29.85 | 113.46 ± 13.79 | 90.68 ± 42.13 | 83.24 ± 12.08 | 0.61 ± 0.02 | 2.93 ± 0.12 | 1.25 ± 0.14 | 0.57 ± 0.06 | HE score [2]: 1.4; Sirius red staining area [2]: 0.398 ± 0.030%; liver TC [2]: 41.7 ± 5.73 µmol/g protein; liver TG [2]: 307 ± 26.3 µmol/g protein; blood lipid levels (in words) [2]: different reductions in blood lipids; liver triglyceride and cholesterol content (in words) [2]: different lowering effects; liver weight and liver/body weight (in words) [2]: significantly increases mouse liver weight and liver/body weight; ALT and AST compared to the model group (in words) [2]: showing the same way as the obeticholic acid group
3 | CC(C)c1onc(-c2c(Cl)cccc2Cl)c1COc1cnc(C2(O)CC(c3cccc(C(=O)O)c3)C2)cn1 (stereo not drawn) [TM-06, 3-(3-(5-(5-isopropyl-3-(2,6-dichlorophenyl)isoxazole-4-ylmethoxy)-2-pyrazine)-1-hydroxycyclobutane) benzoic acid] | 2.41 | 23.75 ± 0.27 | 2.356 ± 0.213 | 21.36 ± 0.27 | 2.664 ± 0.194 | 18.29 ± 0.28 | 2.093 ± 0.250 | 16.41 ± 0.25 | 1.932 ± 0.137 | 15.70 ± 0.22 | 0.67 ± 0.03 | 4.23 ± 0.13 | 48.97 ± 26.07 | 52.14 ± 18.73 | 49.13 ± 33.04 | 45.23 ± 13.21 | 0.42 ± 0.06 | 3.01 ± 0.09 | 0.97 ± 0.16 | 0.59 ± 0.02 | HE score [2]: 1.6; Sirius red staining area [2]: 0.421 ± 0.081%; liver TC [2]: 38.2 ± 35 µmol/g protein; liver TG [2]: 304 ± 46.5 µmol/g protein; blood lipid levels (in words) [2]: different reductions in blood lipids; liver triglyceride and cholesterol content (in words) [2]: different lowering effects; liver weight and liver/body weight (in words) [2]: significantly increases mouse liver weight and liver/body weight; ALT and AST compared to the model group (in words) [2]: significantly reduced
